Measurements published in patent publication US20250170266A1 (ZYMEWORKS BC INC., priority 2022, published 2025).
Like-named read-outs stand apart in the source and are kept apart here.

Columns and labels:
Format in all cases: cell-based
hTLR7 = molecular target: T1, hTLR7 (Homo sapiens, UniProt Q9NYK1); experiment: Reporter Gene Assay (RGA), HEK-Blue hTLR7 reporter cells, SEAP readout; conditions: overnight incubation, SEAP absorbance 620 nm
T1 construct: host or cells: HEK-Blue hTLR7 reporter cells (HEK293-derived, own knowledge)
T1 sequence (Q9NYK1 27-1049): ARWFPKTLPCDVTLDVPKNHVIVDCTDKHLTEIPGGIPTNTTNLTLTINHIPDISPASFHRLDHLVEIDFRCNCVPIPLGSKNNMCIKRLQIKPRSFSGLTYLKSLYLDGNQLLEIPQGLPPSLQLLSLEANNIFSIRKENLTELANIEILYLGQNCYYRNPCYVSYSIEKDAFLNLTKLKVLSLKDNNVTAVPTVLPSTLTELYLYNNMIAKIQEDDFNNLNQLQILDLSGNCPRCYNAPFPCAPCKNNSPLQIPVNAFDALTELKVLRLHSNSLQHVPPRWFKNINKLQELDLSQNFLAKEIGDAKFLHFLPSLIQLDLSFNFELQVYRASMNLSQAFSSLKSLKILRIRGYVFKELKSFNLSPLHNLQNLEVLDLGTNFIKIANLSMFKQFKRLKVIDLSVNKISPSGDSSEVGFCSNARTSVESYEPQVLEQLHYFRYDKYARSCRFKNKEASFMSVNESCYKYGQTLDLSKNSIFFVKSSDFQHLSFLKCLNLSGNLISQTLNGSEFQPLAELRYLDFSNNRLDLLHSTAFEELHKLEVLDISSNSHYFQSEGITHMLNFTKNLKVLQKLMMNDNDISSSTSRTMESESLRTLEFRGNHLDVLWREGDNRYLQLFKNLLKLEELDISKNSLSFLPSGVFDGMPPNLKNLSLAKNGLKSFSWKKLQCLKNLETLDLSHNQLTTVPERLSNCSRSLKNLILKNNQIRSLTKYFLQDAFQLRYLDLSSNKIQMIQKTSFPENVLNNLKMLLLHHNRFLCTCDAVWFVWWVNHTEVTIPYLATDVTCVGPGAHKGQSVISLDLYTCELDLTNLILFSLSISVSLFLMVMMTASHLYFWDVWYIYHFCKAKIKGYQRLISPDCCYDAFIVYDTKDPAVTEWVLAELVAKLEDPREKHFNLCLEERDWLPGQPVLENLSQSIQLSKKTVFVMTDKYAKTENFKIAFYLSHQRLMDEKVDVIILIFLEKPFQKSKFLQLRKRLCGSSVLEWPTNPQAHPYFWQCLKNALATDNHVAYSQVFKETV
How it was run: (§1)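 HEK-Blue reporter cells expressing human or mouse TLR7 (1.5×10^4 cells) were treated with an 11-point, 4-fold compound titration from 15 pM in HEK-Blue Detection medium. Incubation was overnight at 37° C with 5% CO2. Secreted embryonic alkaline phosphatase was read as absorbance at 620 nm.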

mTLR7 = molecular target: T2, mTLR7 (Mus musculus, UniProt P58681); experiment: Reporter Gene Assay (RGA), HEK-Blue mTLR7 reporter cells, SEAP readout; conditions: overnight incubation, SEAP absorbance 620 nm
T2 construct: host or cells: HEK-Blue mTLR7 reporter cells (HEK293-derived, own knowledge)
T2 sequence (P58681 27-1050): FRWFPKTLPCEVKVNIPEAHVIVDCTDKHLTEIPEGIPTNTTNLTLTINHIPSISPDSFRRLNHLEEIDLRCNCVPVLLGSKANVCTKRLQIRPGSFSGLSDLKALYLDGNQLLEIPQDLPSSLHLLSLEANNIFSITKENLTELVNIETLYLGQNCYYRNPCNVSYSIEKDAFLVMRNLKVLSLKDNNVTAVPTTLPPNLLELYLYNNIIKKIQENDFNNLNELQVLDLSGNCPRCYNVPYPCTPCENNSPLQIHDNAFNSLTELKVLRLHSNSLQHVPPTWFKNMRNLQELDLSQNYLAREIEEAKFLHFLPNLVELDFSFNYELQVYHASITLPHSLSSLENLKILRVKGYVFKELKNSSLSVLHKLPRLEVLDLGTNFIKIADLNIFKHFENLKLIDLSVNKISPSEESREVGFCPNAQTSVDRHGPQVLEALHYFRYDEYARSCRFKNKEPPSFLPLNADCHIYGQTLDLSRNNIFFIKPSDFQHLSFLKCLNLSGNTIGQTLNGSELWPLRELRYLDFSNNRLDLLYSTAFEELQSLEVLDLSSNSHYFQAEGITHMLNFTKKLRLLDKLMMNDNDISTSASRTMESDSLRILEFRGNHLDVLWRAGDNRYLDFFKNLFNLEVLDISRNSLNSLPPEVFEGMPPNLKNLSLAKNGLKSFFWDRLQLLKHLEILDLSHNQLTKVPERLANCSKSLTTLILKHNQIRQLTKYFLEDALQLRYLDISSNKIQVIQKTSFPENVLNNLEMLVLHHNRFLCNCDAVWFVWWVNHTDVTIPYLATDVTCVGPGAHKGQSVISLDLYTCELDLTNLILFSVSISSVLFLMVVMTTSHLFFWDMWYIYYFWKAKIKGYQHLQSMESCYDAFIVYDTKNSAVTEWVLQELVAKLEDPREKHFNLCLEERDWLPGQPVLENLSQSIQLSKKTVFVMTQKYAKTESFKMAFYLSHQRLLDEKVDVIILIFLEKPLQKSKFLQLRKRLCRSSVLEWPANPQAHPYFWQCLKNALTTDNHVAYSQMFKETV
How it was run: as §1

[1] = system: Human peripheral blood mononuclear cells (PBMCs); experiment: Human PBMC Assay, cytokine release (HTRF); conditions: 24 hours; for EC50: PBMC
How it was run: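 Cryopreserved human PBMCs, rested overnight with 10 ng/ml hIL3, then 300,000 cells/well treated 24 h at 37° C with compound (4-fold, 11-point titration from 15 μM) in RPMI+10% FBS. Supernatant hIL6, hTNFα and hIFNα measured by HTRF; growth medium as negative control.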

Mouse splenocytes = experiment: Mouse Splenocyte Assay, cytokine release (HTRF); conditions: Splenocyte, 24 hours, mIL6 in supernatant, read-out: Splenocyte IL6 EC50
How it was run: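 Splenocytes from female balb/c nude mice, thawed, 100,000 per well in RPMI + 10% FBS. Exposed for 24 h at 37 °C to a 4-fold 11-point compound titration from 15 μM; supernatant mIL6 and mTNFα measured by HTRF.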

[2] = hIFNα in supernatant, EC50 values approximated and divided into groups, read-out: PBMC IFNa EC50
[3] = hIL6 in supernatant, read-out: PBMC IL6 EC50

| SMILES | EC50 (hTLR7) [nM] | EC50 (mTLR7) [nM] | EC50 [1, 2] [nM] | EC50 [1, 3] [nM] | EC50 (Mouse splenocytes) [nM] | PBMC IL6 EC50 (nM) ([1]; hIL6 in supernatant) |
| --- | --- | --- | --- | --- | --- | --- |
| CCCCOc1nc(N)c2nc(O)n(Cc3ccc(CNCCCCN)cc3OC)c2n1 [Compound 160, 6-amino-9-(4-(((4-aminobutyl)amino)methyl)-2-methoxybenzyl)-2-butoxy-9H-purin-8-ol] | 7.2 | 10 | < 0.1 | 1080 | 6.6 | – |
| CCCCOc1nc(N)c2nc(O)n(Cc3ccc(CN)cc3OC)c2n1 [Compound 162, 6-amino-9-(4-(aminomethyl)-2-methoxybenzyl)-2-butoxy-9H-purin-8-ol] | 1.7 | 2.3 | 1 to 10 | – | 1.3 | – |
| CCCCOc1nc(N)c2nc(O)n(Cc3ccc(CNC)cc3OC)c2n1 [Compound 163, 6-amino-2-butoxy-9-(2-methoxy-4-((methylamino)methyl)benzyl)-9H-purin-8-ol] | 0.7 | 3.3 | < 0.1 | – | 2.9 | – |
| CCCCOc1nc(N)c2nc(O)n(Cc3ccc(CNC4CCC4)cc3OC)c2n1 [Compound 164, 6-amino-2-butoxy-9-(4-((cyclobutylamino)methyl)-2-methoxybenzyl)-9H-purin-8-ol] | < 0.1 | < 0.1 | < 0.1 | 2540 | 0.3 | – |
| CCCCOc1nc(N)c2nc(O)n(Cc3ccc(CN4CCNCC4)cc3)c2n1 [Compound 166, 6-amino-2-butoxy-9-(4-(piperazin-1-ylmethyl)benzyl)-9H-purin-8-ol] | < 0.1 | 11 | > 10 | 1570 | 150 | – |
| CCCCOc1nc(N)c2nc(O)n(Cc3ccc(N4CCNCC4)nc3)c2n1 [Compound 167, 6-amino-2-butoxy-9-((6-(piperazin-1-yl)pyridin-3-yl)methyl)-9H-purin-8-ol] | 0.5 | 5.3 | > 10 | 2030 | 18 | – |
| CCCCOc1nc(N)c2nc(O)n(Cc3ccc(N4CCC5(CCNCC5)CC4)nc3)c2n1 [Compound 168, 9-((6-(3,9-diazaspiro[5.5]undecan-3-yl)pyridin-3-yl)methyl)-6-amino-2-butoxy-9H-purin-8-ol] | 0.1 | 5.7 | > 10 | – | 35.7 | inactive |
| CCCCOc1nc(N)c2nc(O)n(Cc3ccc(N4CCNCC4)cc3OC)c2n1 [Compound 169, 6-amino-2-butoxy-9-(2-methoxy-4-(piperazin-1-yl)benzyl)-9H-purin-8-ol] | 1.1 | 3 | 1 to 10 | – | 23.2 | – |
| CCCCOc1nc(N)c2nc(O)n(Cc3ccc(N4CCC(N)CC4)cc3OC)c2n1 [Compound 170, 6-amino-9-(4-(4-aminopiperidin-1-yl)-2-methoxybenzyl)-2-butoxy-9H-purin-8-ol] | 1 | 2 | > 10 | 1470 | 51.7 | – |
| CCCCOc1nc(N)c2nc(O)n(Cc3ccc(N4CCC5(CCNCC5)CC4)cc3OC)c2n1 [Compound 171, 6-amino-2-butoxy-9-(2-methoxy-4-(3,9-diazaspiro[5.5]undecan-3-yl)benzyl)-9H-purin-8-ol] | < 0.1 | 1.1 | > 10 | 1550 | 8.9 | – |
| CCCCOc1nc(N)c2nc(O)n(Cc3ccc(CCCN4CCC(N)CC4)cc3OC)c2n1 [Compound 172, 6-amino-9-(4-(3-(4-aminopiperidin-1-yl)propyl)-2-methoxybenzyl)-2-butoxy-9H-purin-8-ol] | < 0.1 | < 0.1 | > 10 | – | 2.1 | – |
| CCCCOc1nc(N)c2nc(O)n(Cc3ccc(CCCN4CCNCC4)cc3OC)c2n1 [Compound 173, 6-amino-2-butoxy-9-(2-methoxy-4-(3-(piperazin-1-yl)propyl)benzyl)-9H-purin-8-ol] | 0.2 | 0.6 | 1 to 10 | 1800 | 5 | – |
| CCCCOc1nc(N)c2nc(O)n(Cc3ccc(CCCN4CCC(CCN)CC4)cc3OC)c2n1 [Compound 175, 6-amino-9-(4-(3-(4-(2-aminoethyl)piperidin-1-yl)propyl)-2-methoxybenzyl)-2-butoxy-9H-purin-8-ol] | < 0.1 | < 0.1 | > 10 | – | 6 | inactive |
| CCCCOc1nc(N)c2nc(O)n(Cc3ccc(CCCNC4CCNCC4)cc3OC)c2n1 [Compound 176, 6-amino-2-butoxy-9-(2-methoxy-4-(3-(piperidin-4-ylamino)propyl)benzyl)-9H-purin-8-ol] | < 0.1 | < 0.1 | > 10 | – | 5.8 | inactive |
| CCCCOc1nc(N)c2nc(O)n(Cc3ccc(CCN4CCNCC4)cc3OC)c2n1 [Compound 180, 6-amino-2-butoxy-9-(2-methoxy-4-(2-(piperazin-1-yl)ethyl)benzyl)-9H-purin-8-ol] | 34 | 79.9 | > 10 | – | 873 | inactive |
| CCCC(CO)Oc1nc(N)c2nc(O)n(Cc3ccc(CN)cc3)c2n1 (stereo not drawn) [Compound 182, 6-amino-9-(4-(aminomethyl)benzyl)-2-((1-hydroxypentan-2-yl)oxy)-9H-purin-8-ol] | 2.1 | 5.9 | > 10 | 5220 | 2.4 | – |
| CCCCCNc1nc(N)c2nc(O)n(Cc3ccc(CN)cc3)c2n1 [Compound 183, 6-amino-9-(4-(aminomethyl)benzyl)-2-(pentylamino)-9H-purin-8-ol] | 145 | 60.6 | > 10 | 291 | 235 | – |
